Values after ≈ are worked out from the molar mass of the structure shown.
Columns and labels:
Assay type in all cases: functional
Escherichia coli = test: Minimum inhibitory concentration against Escherichia coli
Pasteurella multocida = test: Minimum inhibitory concentration against Pasteurella multocida
Staphylococcus aureus [1] = test: Colony forming units of Staphylococcus aureus intramammary infection (IMI) model was determined at a dose of 15 mg/kg
Staphylococcus aureus [2] = test: Effective dose required to inhibit Staphylococcus aureus intraperitoneal (IP) infection model
Staphylococcus aureus [3] = test: Minimum inhibitory concentration against Staphylococcus aureus

| Compound | MIC (Escherichia coli) [µg/mL] | MIC (Pasteurella multocida) [µg/mL] | Log CFU (Staphylococcus aureus [1]) | ED50 (Staphylococcus aureus [2]) [mg/kg] | MIC (Staphylococcus aureus [3]) [µg/mL] |
| --- | --- | --- | --- | --- | --- |
| CC[C@H]1OC(=O)[C@H](C)[C@H]2OC3(CCN(C(=O)c4ccccn4)CC3)O[C@](C)(C[C@@H](C)CN[C@H](C)[C@@H](O)[C@]1(C)O)[C@H](O[C@@H]1O[C@H](C)C[C@H](N(C)C)[C@H]1O)[C@H]2C | 1.56 (≈ 2.04 µM) | 0.1 (≈ 0.131 µM) | 3.5 | 7.6 | 0.78 (≈ 1.02 µM) |
| CC[C@H]1OC(=O)[C@H](C)[C@H]2OC3(CCN(CCc4ccc5ccccc5n4)CC3)O[C@](C)(C[C@@H](C)CN[C@H](C)[C@@H](O)[C@]1(C)O)[C@H](O[C@@H]1O[C@H](C)C[C@H](N(C)C)[C@H]1O)[C@H]2C | 0.78 (≈ 0.959 µM) | 0.03 (≈ 0.0369 µM) | 5.2 | 22 | 0.2 (≈ 0.246 µM) |
| CC[C@H]1OC(=O)[C@H](C)[C@H]2OC3(CCN(C(=O)c4ccc5ccccc5n4)CC3)O[C@](C)(C[C@@H](C)CN[C@H](C)[C@@H](O)[C@]1(C)O)[C@H](O[C@@H]1O[C@H](C)C[C@H](N(C)C)[C@H]1O)[C@H]2C | 1.56 (≈ 1.92 µM) | 0.05 (≈ 0.0615 µM) | 1.9 | 14 | 0.2 (≈ 0.246 µM) |
| CC[C@H]1OC(=O)[C@H](C)[C@H]2OC3(CCN(C(=O)c4ccc[nH]4)CC3)O[C@](C)(C[C@@H](C)CN[C@H](C)[C@@H](O)[C@]1(C)O)[C@H](O[C@@H]1O[C@H](C)C[C@H](N(C)C)[C@H]1O)[C@H]2C | 0.78 (≈ 1.04 µM) | 0.05 (≈ 0.0666 µM) | 4.7 | 19 | 0.78 (≈ 1.04 µM) |
| CC[C@H]1OC(=O)[C@H](C)[C@H]2OC3(CCN(C(=O)c4cccc(OC)c4)CC3)O[C@](C)(C[C@@H](C)CN[C@H](C)[C@@H](O)[C@]1(C)O)[C@H](O[C@@H]1O[C@H](C)C[C@H](N(C)C)[C@H]1O)[C@H]2C | 3.13 (≈ 3.95 µM) | 0.1 (≈ 0.126 µM) | 5.6 | 20 | 0.78 (≈ 0.985 µM) |
| CC[C@H]1OC(=O)[C@H](C)[C@H]2OC3(CCN(Cc4cccnc4)CC3)O[C@](C)(C[C@@H](C)CN[C@H](C)[C@@H](O)[C@]1(C)O)[C@H](O[C@@H]1O[C@H](C)C[C@H](N(C)C)[C@H]1O)[C@H]2C | 0.78 (≈ 1.04 µM) | 0.03 (≈ 0.0401 µM) | 1.3 | < 5 | 0.39 (≈ 0.521 µM) |
| CC[C@H]1OC(=O)[C@H](C)[C@H]2OC3(CCN(CCc4ccccc4)CC3)O[C@](C)(C[C@@H](C)CN(C)[C@H](C)[C@@H](O)[C@]1(C)O)[C@H](O[C@@H]1O[C@H](C)C[C@H](N(C)C)[C@H]1O)[C@H]2C | 0.075 (≈ 0.0966 µM) | 0.02 (≈ 0.0258 µM) | 7.3 | > 20 | – |
| CC[C@H]1OC(=O)[C@H](C)[C@H]2OC3(CCN(C(=O)c4cnccn4)CC3)O[C@](C)(C[C@@H](C)CN[C@H](C)[C@@H](O)[C@]1(C)O)[C@H](O[C@@H]1O[C@H](C)C[C@H](N(C)C)[C@H]1O)[C@H]2C | 1.56 (≈ 2.04 µM) | 0.1 (≈ 0.131 µM) | 1.3 | 6.1 | 1.56 (≈ 2.04 µM) |
| CC[C@H]1OC(=O)[C@H](C)[C@H]2OC3(CCN(C(=O)c4ccoc4)CC3)O[C@](C)(C[C@@H](C)CN[C@H](C)[C@@H](O)[C@]1(C)O)[C@H](O[C@@H]1O[C@H](C)C[C@H](N(C)C)[C@H]1O)[C@H]2C | 0.78 (≈ 1.04 µM) | 0.05 (≈ 0.0665 µM) | 2.6 | 11 | 0.78 (≈ 1.04 µM) |
| CC[C@H]1OC(=O)[C@H](C)[C@H]2OC3(CCN(Cc4ccccn4)CC3)O[C@](C)(C[C@@H](C)CN[C@H](C)[C@@H](O)[C@]1(C)O)[C@H](O[C@@H]1O[C@H](C)C[C@H](N(C)C)[C@H]1O)[C@H]2C | 0.2 (≈ 0.267 µM) | 0.03 (≈ 0.0401 µM) | 1.1 | < 5 | 0.6 (≈ 0.801 µM) |
| CC[C@H]1OC(=O)[C@H](C)[C@H]2OC3(CCN(C(=O)c4cccnc4)CC3)O[C@](C)(C[C@@H](C)CN[C@H](C)[C@@H](O)[C@]1(C)O)[C@H](O[C@@H]1O[C@H](C)C[C@H](N(C)C)[C@H]1O)[C@H]2C | 3.13 (≈ 4.1 µM) | 0.1 (≈ 0.131 µM) | 3.2 | 6.4 | 1.56 (≈ 2.04 µM) |
| CC[C@H]1OC(=O)[C@H](C)[C@H]2OC3(CCN(C(=O)c4cnc5ccccc5c4)CC3)O[C@](C)(C[C@@H](C)CN[C@H](C)[C@@H](O)[C@]1(C)O)[C@H](O[C@@H]1O[C@H](C)C[C@H](N(C)C)[C@H]1O)[C@H]2C | 3.13 (≈ 3.85 µM) | 0.1 (≈ 0.123 µM) | 3.3 | 13 | 0.39 (≈ 0.48 µM) |
| CC[C@H]1OC(=O)[C@H](C)[C@H]2OC3(CCN(C(=O)c4ccccc4)CC3)O[C@](C)(C[C@@H](C)CN[C@H](C)[C@@H](O)[C@]1(C)O)[C@H](O[C@@H]1O[C@H](C)C[C@H](N(C)C)[C@H]1O)[C@H]2C | 1.56 (≈ 2.05 µM) | 0.1 (≈ 0.131 µM) | 2.9 | 20 | 0.78 (≈ 1.02 µM) |
| CC[C@H]1OC(=O)[C@H](C)[C@H]2OC3(CCN(CCc4ccc(NC(C)=O)cc4)CC3)O[C@](C)(C[C@@H](C)CN(C)[C@H](C)[C@@H](O)[C@]1(C)O)[C@H](O[C@@H]1O[C@H](C)C[C@H](N(C)C)[C@H]1O)[C@H]2C | 0.39 (≈ 0.468 µM) | 0.05 (≈ 0.06 µM) | 9.7 | 9.6 | – |
| CC[C@H]1OC(=O)[C@H](C)[C@H]2OC3(CCN(C(=O)c4cccn4C)CC3)O[C@](C)(C[C@@H](C)CN[C@H](C)[C@@H](O)[C@]1(C)O)[C@H](O[C@@H]1O[C@H](C)C[C@H](N(C)C)[C@H]1O)[C@H]2C | 1.56 (≈ 2.04 µM) | 0.1 (≈ 0.131 µM) | 2.4 | 19 | 0.78 (≈ 1.02 µM) |
| CC[C@H]1OC(=O)[C@H](C)[C@H]2OC3(CCN(C(=O)c4ccco4)CC3)O[C@](C)(C[C@@H](C)CN[C@H](C)[C@@H](O)[C@]1(C)O)[C@H](O[C@@H]1O[C@H](C)C[C@H](N(C)C)[C@H]1O)[C@H]2C | 1.56 (≈ 2.07 µM) | 0.05 (≈ 0.0665 µM) | 0.4 | 12 | 0.78 (≈ 1.04 µM) |
| CC[C@H]1OC(=O)[C@H](C)[C@H]2OC3(CCN(C(=O)c4cccc(O)n4)CC3)O[C@](C)(C[C@@H](C)CN[C@H](C)[C@@H](O)[C@]1(C)O)[C@H](O[C@@H]1O[C@H](C)C[C@H](N(C)C)[C@H]1O)[C@H]2C | 6.25 (≈ 8.02 µM) | 0.3 (≈ 0.385 µM) | 9.7 | 19 | 3.13 (≈ 4.02 µM) |
| CC[C@H]1OC(=O)[C@H](C)[C@H]2OC3(CCN(C(=O)c4cccnc4Cl)CC3)O[C@](C)(C[C@@H](C)CN[C@H](C)[C@@H](O)[C@]1(C)O)[C@H](O[C@@H]1O[C@H](C)C[C@H](N(C)C)[C@H]1O)[C@H]2C | 3.13 (≈ 3.93 µM) | 0.1 (≈ 0.125 µM) | 4.4 | 9.4 | 1.56 (≈ 1.96 µM) |
| CC[C@H]1OC(=O)[C@H](C)[C@H]2OC3(CCN(Cc4ccccn4)CC3)O[C@](C)(C[C@@H](C)CN(C)[C@H](C)[C@@H](O)[C@]1(C)O)[C@H](O[C@@H]1O[C@H](C)C[C@H](N(C)C)[C@H]1O)[C@H]2C | 0.2 (≈ 0.262 µM) | 0.03 (≈ 0.0393 µM) | 1.9 | 17 | 0.78 (≈ 1.02 µM) |
| CC[C@H]1OC(=O)[C@H](C)[C@H]2OC3(CCN(C(=O)c4cccnc4)CC3)O[C@](C)(C[C@@H](C)CN(C)[C@H](C)[C@@H](O)[C@]1(C)O)[C@H](O[C@@H]1O[C@H](C)C[C@H](N(C)C)[C@H]1O)[C@H]2C | 3.13 (≈ 4.03 µM) | 0.1 (≈ 0.129 µM) | 2.6 | 10 | 1.56 (≈ 2.01 µM) |
| CC[C@H]1OC(=O)[C@H](C)[C@H]2OC3(CCN(C(=O)c4ccccn4)CC3)O[C@](C)(C[C@@H](C)CN(C)[C@H](C)[C@@H](O)[C@]1(C)O)[C@H](O[C@@H]1O[C@H](C)C[C@H](N(C)C)[C@H]1O)[C@H]2C | 1.56 (≈ 2.01 µM) | 0.1 (≈ 0.129 µM) | 2.9 | 12 | 1.56 (≈ 2.01 µM) |
| CC[C@H]1OC(=O)[C@H](C)[C@H]2OC3(CCN(C(=O)c4ccc5ccccc5n4)CC3)O[C@](C)(C[C@@H](C)CN(C)[C@H](C)[C@@H](O)[C@]1(C)O)[C@H](O[C@@H]1O[C@H](C)C[C@H](N(C)C)[C@H]1O)[C@H]2C | 6.25 (≈ 7.56 µM) | 0.1 (≈ 0.121 µM) | 9.7 | > 20 | 0.39 (≈ 0.472 µM) |
| CC[C@H]1OC(=O)[C@H](C)[C@H]2OC3(CCN(CCc4ccc(Cl)cc4)CC3)O[C@](C)(C[C@@H](C)CN(C)[C@H](C)[C@@H](O)[C@]1(C)O)[C@H](O[C@@H]1O[C@H](C)C[C@H](N(C)C)[C@H]1O)[C@H]2C | 0.2 (≈ 0.247 µM) | 0.03 (≈ 0.037 µM) | 9.7 | > 20 | 0.39 (≈ 0.481 µM) |
